Laboratory results as given in PMC9403545, “Structure based design of effective HtpG-derived vaccine antigens against M. tuberculosis” (Frontiers in Molecular Biosciences, 2022).

Biological target: T1, HtpGMtb (Mycobacterium tuberculosis, UniProt P9WMJ7)
T1 construct: gene htpG; full-length wild type, recombinant in E. coli BL21(DE3), Ni-NTA and SEC, further ion exchange to remove nucleic acid; homodimer
Test: biochemical
Format: binding

T1 sequence (P9WMJ7 whole entry): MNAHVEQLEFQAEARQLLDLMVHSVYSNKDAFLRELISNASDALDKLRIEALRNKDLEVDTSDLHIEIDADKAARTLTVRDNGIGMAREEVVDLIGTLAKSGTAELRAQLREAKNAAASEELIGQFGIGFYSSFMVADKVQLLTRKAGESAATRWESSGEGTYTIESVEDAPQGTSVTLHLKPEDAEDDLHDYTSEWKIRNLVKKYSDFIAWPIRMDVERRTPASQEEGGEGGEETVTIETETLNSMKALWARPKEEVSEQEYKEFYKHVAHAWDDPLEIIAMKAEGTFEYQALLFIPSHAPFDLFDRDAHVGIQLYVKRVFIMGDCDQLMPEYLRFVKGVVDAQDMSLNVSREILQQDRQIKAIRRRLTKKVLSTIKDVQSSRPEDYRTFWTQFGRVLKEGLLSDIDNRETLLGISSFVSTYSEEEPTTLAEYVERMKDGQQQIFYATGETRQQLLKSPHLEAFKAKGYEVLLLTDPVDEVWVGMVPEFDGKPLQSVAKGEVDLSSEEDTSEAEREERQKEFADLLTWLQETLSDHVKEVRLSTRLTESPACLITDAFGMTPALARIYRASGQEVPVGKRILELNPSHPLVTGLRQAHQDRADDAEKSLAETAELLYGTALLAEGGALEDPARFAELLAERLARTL

Row | Compound | Kd
1 | Nc1ncnc2c1ncn2[C@@H]1O[C@H](COP(=O)(O)OP(=O)(O)NP(=O)(O)O)[C@@H](O)[C@H]1O [AMP-PNP] | 45.4 µM
2 | Nc1ncnc2c1ncn2[C@@H]1O[C@H](COP(=O)(O)OP(=O)(O)O)[C@@H](O)[C@H]1O [ADP] | 34 µM
